Columns and labels:
Human HDAC8 = Human HDAC8 (Homo sapiens (Human), UniProt Q9BY41); assay: Caliper endpoint assay for HDAC8 enzymatic activity; assay type: biochemical; settings: in vitro enzymatic
Human HDAC6 = Human HDAC6 (Homo sapiens (Human), UniProt Q9UBN7); assay: HDAC6 enzymatic activity assay (Caliper endpoint or fluorogenic format); assay type: biochemical; settings: for IC50: in vitro enzymatic; for Selectivity (6 v 8) (fold): ratio of HDAC8 IC50/HDAC6 IC50
Sequence of Human HDAC6 (Q9UBN7 whole entry): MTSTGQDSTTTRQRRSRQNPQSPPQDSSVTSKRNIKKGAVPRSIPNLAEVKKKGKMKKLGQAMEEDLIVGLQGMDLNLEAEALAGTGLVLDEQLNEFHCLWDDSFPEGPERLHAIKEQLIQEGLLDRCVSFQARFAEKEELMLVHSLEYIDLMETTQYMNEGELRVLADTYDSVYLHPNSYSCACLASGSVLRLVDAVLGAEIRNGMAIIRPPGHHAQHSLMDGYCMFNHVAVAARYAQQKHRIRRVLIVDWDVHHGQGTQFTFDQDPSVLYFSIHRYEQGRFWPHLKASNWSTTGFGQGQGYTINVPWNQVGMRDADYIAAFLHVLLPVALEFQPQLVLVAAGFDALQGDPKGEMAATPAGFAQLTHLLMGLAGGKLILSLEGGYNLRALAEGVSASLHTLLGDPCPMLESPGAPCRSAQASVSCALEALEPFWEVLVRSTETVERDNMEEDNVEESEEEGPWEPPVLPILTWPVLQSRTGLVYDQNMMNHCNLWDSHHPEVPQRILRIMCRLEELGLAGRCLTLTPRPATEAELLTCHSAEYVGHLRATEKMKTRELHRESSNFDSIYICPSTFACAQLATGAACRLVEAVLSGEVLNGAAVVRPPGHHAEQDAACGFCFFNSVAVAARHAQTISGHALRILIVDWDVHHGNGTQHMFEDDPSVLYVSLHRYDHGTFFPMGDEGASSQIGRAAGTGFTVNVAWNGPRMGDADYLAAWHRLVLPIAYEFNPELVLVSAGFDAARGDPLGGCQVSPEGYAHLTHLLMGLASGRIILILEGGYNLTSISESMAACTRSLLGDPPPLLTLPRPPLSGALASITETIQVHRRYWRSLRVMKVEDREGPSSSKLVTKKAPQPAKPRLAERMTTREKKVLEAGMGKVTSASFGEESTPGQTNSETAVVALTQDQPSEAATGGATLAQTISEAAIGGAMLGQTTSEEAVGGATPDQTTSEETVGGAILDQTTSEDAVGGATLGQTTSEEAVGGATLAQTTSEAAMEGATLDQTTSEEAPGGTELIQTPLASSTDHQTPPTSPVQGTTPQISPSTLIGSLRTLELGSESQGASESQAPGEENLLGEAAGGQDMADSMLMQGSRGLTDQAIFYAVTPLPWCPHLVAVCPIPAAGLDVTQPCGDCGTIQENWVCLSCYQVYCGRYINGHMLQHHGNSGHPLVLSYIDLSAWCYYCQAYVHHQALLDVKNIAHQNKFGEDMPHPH

Sequence of Human HDAC8 (Q9BY41 whole entry): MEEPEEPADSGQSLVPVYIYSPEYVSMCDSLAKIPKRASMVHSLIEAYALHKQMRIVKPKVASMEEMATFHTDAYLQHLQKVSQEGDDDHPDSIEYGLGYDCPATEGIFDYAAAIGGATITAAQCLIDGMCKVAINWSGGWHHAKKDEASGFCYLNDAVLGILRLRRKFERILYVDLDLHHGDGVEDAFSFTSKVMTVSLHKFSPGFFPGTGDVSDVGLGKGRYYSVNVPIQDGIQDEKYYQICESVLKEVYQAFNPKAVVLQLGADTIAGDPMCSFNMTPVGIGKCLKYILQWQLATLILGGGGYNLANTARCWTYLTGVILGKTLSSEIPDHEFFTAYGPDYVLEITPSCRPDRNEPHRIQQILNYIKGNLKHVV

SMILES | IC50 (Human HDAC8) [nM] | IC50 (Human HDAC6) [nM] | Selectivity (6 v 8) (fold) (Human HDAC6)
N#Cc1cc(F)cc(OCc2ccc(-c3nnc(C(F)F)o3)cn2)c1 [Compound 51] | > 100000 | 1 to 100 | V (V: >1000)
FC(F)c1nnc(-c2ccc(COc3ccc4c(c3)CCCC4)nc2)o1 [Compound 54] | > 100000 | 1 to 100 | V (V: >1000)
FC(F)c1nnc(-c2ccc(COc3ccc4c(c3)ncn4CCN3CCCC3)nc2)o1 [Compound 209] | > 100000 | 1000 to 10000 | III (III: >10-100)
FC(F)c1nnc(-c2ccc(COc3cccc4nccnc34)nc2)o1 [Compound 55] | > 100000 | 1 to 100 | V (V: >1000)
Fc1ccc(OC(F)(F)c2ccc(-c3nnc(C(F)F)o3)cn2)cc1 [Compound 15, 2-(6-(difluoro(4-fluorophenoxy)methyl)pyridin-3-yl)-5-(difluoromethyl)-1,3,4-oxadiazole] | > 100000 | 100 to 1000 | V (V: >1000)
N#Cc1cc(OCc2ccc(-c3nnc(C(F)F)o3)cn2)ccc1F [Compound 30] | > 100000 | 1 to 100 | V (V: >1000)
N#Cc1ccc(F)cc1OCc1ccc(-c2nnc(C(F)F)o2)cn1 [Compound 50] | > 100000 | 1 to 100 | V (V: >1000)
CN1CCc2c(OCc3ccc(-c4nnc(C(F)F)o4)cn3)noc2C1 [Compound 191, 3-((5-(5-(Difluoromethyl)-1,3,4-oxadiazol-2-yl)pyridin-2-yl)methoxy)-6-methyl-4,5,6,7-tetrahydroisoxazolo[5,4-c]pyridine] | > 100000 | 100 to 1000 | IV (IV: >100-1000)
Cn1nc(-c2nc3ccc(OCc4ccc(-c5nnc(C(F)F)o5)cn4)cc3o2)ccc1=O [Compound 204] | > 100000 | 1 to 100 | V (V: >1000)
Fc1ccc(OCc2ncc(-c3nnc(C(F)F)o3)cn2)cc1 [Compound 1, 2-(difluoromethyl)-5-(2-((4-fluorophenoxy)methyl)pyrimidin-5-yl)-1,3,4-oxadiazole] | > 100000 | 1 to 100 | V (V: >1000)
FC(F)c1nnc(-c2ccc(COCC34CC5CC(CC(C5)O3)C4)nc2)o1 [Compound 20, 2-(6-(((2-oxaadamantan-1-yl)methoxy)methyl)pyridin-3-yl)-5-(difluoromethyl)-1,3,4-oxadiazole] | > 100000 | 1 to 100 | V (V: >1000)
CN(C)CCn1cnc2cc(OCc3ccc(-c4nnc(C(F)F)o4)cn3)ccc21 [Compound 210] | > 100000 | 1000 to 10000 | III (III: >10-100)
N#Cc1cc(F)ccc1OCc1ccc(-c2nnc(C(F)F)o2)cn1 [Compound 45] | > 100000 | 1 to 100 | V (V: >1000)
FC(F)c1nnc(-c2ccc(COc3ccc4cnccc4c3)nc2)o1 [Compound 32] | 10000 to 100000 | 1 to 100 | V (V: >1000)
FC(F)c1nnc(-c2ccc(COc3ccnc(-c4ccccc4)c3)nc2)o1 [Compound 186, 2-(Difluoromethyl)-5-(6-(((2-phenylpyridin-4-yl)oxy)methyl)pyridin-3-yl)-1,3,4-oxadiazole] |  | 1 to 100 | 
FC(F)c1nnc(-c2ccc(COC3CC4CCC(C3)O4)nc2)o1 (stereo not shown) [Compound 109] |  | 100 to 1000 | 
Cc1noc2cccc(OCc3ncc(-c4nnc(C(F)F)o4)cn3)c12 [Compound 134] |  | 1 to 100 | 
Cc1ccc2nnc(OCc3ccc(-c4nnc(C(F)F)o4)cn3)n2c1 [Compound 89] |  | 1 to 100 | 
Fc1ccc(OCc2ncc(-c3nnc(C(F)F)o3)cn2)cc1 [Compound 166, 2-(difluoromethyl)-5-(2-((4-fluorophenoxy)methyl)pyrimidin-5-yl)-1,3,4-oxadiazole] |  | 1 to 100 | 
C#Cc1cccc(OCc2ncc(-c3nnc(C(F)F)o3)cc2F)c1 [Compound 128] |  | 1 to 100 | 
CN1C[C@@]2(COCc3ccc(-c4nnc(C(F)F)o4)cn3)C[C@@H]1CO2 [Compound 25] |  | 100 to 1000 | 
Fc1ccc(OCc2ncc(-c3nnc(C(F)F)o3)cc2F)c(F)c1 [Compound 131] |  | 1 to 100 | 
C#Cc1ccccc1OCc1ncc(-c2nnc(C(F)F)o2)cn1 [Compound 168] |  | 1 to 100 | 
O=C(Nc1ccccc1)c1cccc(OCc2ccc(-c3nnco3)cn2)c1 [Compound 196, 3-((5-(1,3,4-oxadiazol-2-yl)pyridin-2-yl)methoxy)-N-phenylbenzamide] |  | 1 to 100 | 
N#Cc1ccc(COCc2ccc(-c3nnc(C(F)F)o3)cn2)s1 [Compound 120] |  | 100 to 1000 | 
Cn1cnc2cc(OCc3ncc(-c4nnc(C(F)F)o4)cc3F)ccc21 [Compound 147] |  | 1 to 100 | 
FC(F)c1nnc(-c2cnc(COc3ccc4cnccc4c3)nc2)o1 [Compound 154] |  | 1 to 100 | 
Fc1cc(-c2nnc(C(F)F)o2)cnc1COc1cccc2cnccc12 [Compound 125] |  | 1 to 100 | 
Fc1cc(-c2nnc(C(F)F)o2)cnc1COc1cccc2ccncc12 [Compound 126] |  | 1 to 100 | 

Further lines, results first:

IC50 (Human HDAC8) [nM] | IC50 (Human HDAC6) [nM] | Selectivity (6 v 8) (fold) (Human HDAC6) | SMILES
> 100000 | 100 to 1000 | V (V: >1000) | FC(F)c1nnc(-c2ccc(COc3ccon3)nc2)o1 [Compound 64]
> 100000 | 1 to 100 | V (V: >1000) | Fc1cncc(OCc2ccc(-c3nnc(C(F)F)o3)cn2)c1 [Compound 19, 2-(Difluoromethyl)-5-(6-(((5-fluoropyridin-3-yl)oxy)methyl)pyridin-3-yl)-1,3,4-oxadiazole]
10000 to 100000 | 100 to 1000 | IV (IV: >100-1000) | CCn1ccc(OCc2ccc(-c3nnc(C(F)F)o3)cn2)n1 [Compound 69]
1000 to 10000 | 1 to 100 | III (III: >10-100) | Cc1nc(Cl)cc(OCc2ccc(-c3nnc(C(F)F)o3)cn2)n1 [Compound 80]
10000 to 100000 | 1 to 100 | V (V: >1000) | N#Cc1ccc(OCc2ccc(-c3nnc(C(F)F)o3)cn2)cc1 [Compound 118, 4-((5-(5-(difluoromethyl)-1,3,4-oxadiazol-2-yl)pyridin-2-yl)methoxy)benzonitrile]
> 100000 | 1 to 100 | V (V: >1000) | Fc1ccc(OCc2ccc(-c3nnc(C(F)F)o3)cn2)nc1 [Compound 76]
> 100000 | 100 to 1000 | V (V: >1000) | FC(F)c1nnc(-c2ccc(COc3cnccn3)nc2)o1 [Compound 68]
> 100000 | 1 to 100 | V (V: >1000) | FC(F)c1nnc(-c2ccc(COc3ccncc3)nc2)o1 [Compound 18, 2-(difluoromethyl)-5-(6-((pyridin-4-yloxy)methyl)pyridin-3-yl)-1,3,4-oxadiazole]
> 100000 | 1 to 100 | V (V: >1000) | Fc1cccnc1OCc1ccc(-c2nnc(C(F)F)o2)cn1 [Compound 77, 2-(Difluoromethyl)-5-[6-[(3-fluoro-2-pyridyl)oxymethyl]-3-pyridyl]-1,3,4-oxadiazole]
> 100000 | 1 to 100 | V (V: >1000) | Cn1ncc2c(OCc3ccc(-c4nnc(C(F)F)o4)cn3)cccc21 [Compound 58]
10000 to 100000 | 1 to 100 | IV (IV: >100-1000) | Cc1cnccc1OCc1ccc(-c2nnc(C(F)F)o2)cn1 [Compound 75]
> 100000 | 100 to 1000 | IV (IV: >100-1000) | FC(F)c1nnc(-c2ccc(COc3ccn4cnnc4c3)nc2)o1 [Compound 184, 2-(6-(([1,2,4]triazolo[4,3-a]pyridin-7-yloxy)methyl)pyridin-3-yl)-5-(difluoromethyl)-1,3,4-oxadiazole]
> 100000 | 100 to 1000 | V (V: >1000) | Cn1cc(OCc2ccc(-c3nnc(C(F)F)o3)cn2)cn1 [Compound 65]
> 100000 | 1 to 100 | V (V: >1000) | FC(F)c1nnc(-c2ccc(COc3cccc(C(F)(F)F)n3)nc2)o1 [Compound 92]
> 100000 | 1 to 100 | V (V: >1000) | FC(F)c1nnc(-c2ccc(COc3ccc(C(F)(F)F)nc3)nc2)o1 [Compound 91]
> 100000 | 1 to 100 | V (V: >1000) | FC(F)c1nnc(-c2ccc(COc3cccc4cnccc34)nc2)o1 [Compound 35]
> 100000 | 1 to 100 | V (V: >1000) | Fc1ccc(OCc2ccc(-c3nnc(C(F)F)o3)cn2)c(Cl)c1 [Compound 4, 2-(6-((2-chloro-4-fluorophenoxy)methyl)pyridin-3-yl)-5-(difluoromethyl)-1,3,4-oxadiazole]
> 100000 | 1 to 100 | V (V: >1000) | N#Cc1ccccc1OCc1ccc(-c2nnc(C(F)F)o2)cn1 [Compound 42]
> 100000 | 1 to 100 | V (V: >1000) | FC(F)c1nnc(-c2ccc(COc3cccn4ccnc34)nc2)o1 [Compound 82]
> 100000 | 1 to 100 | V (V: >1000) | Fc1cc(Cl)ccc1OCc1ccc(-c2nnc(C(F)F)o2)cn1 [Compound 3, 2-(6-((4-chloro-2-fluorophenoxy)methyl)pyridin-3-yl)-5-(difluoromethyl)-1,3,4-oxadiazole]
> 100000 | 1 to 100 | V (V: >1000) | Cc1noc2cc(OCc3ccc(-c4nnc(C(F)F)o4)cn3)ccc12 [Compound 59]
 | 1 to 100 |  | FC(F)c1nnc(-c2ccc(COc3cnc4ccnn4c3)nc2)o1 [Compound 183, 2-(Difluoromethyl)-5-(6-((pyrazolo[1,5-a]pyrimidin-6-yloxy)methyl)pyridin-3-yl)-1,3,4-oxadiazole]
